Data published in patent publication US7160907B2, “Pleuromutilin derivatives” (SmithKline Beecham P.L.C., priority 2000, dated 2007).

Columns and labels:
Assay type in all cases: cell-based
[1] = test system: Haemophilus influenzae Q1; experiment: conventional MIC assay, Haemophilus influenzae Q1; conditions: against Haemophilus influenzae Q1
Experimental: (§1) Compounds of the present invention were assessed for anti-bacterial activity in a conventional MIC assay against a range of pathogenic organisms.

[2] = test system: Staphylococcus aureus Oxford; experiment: conventional MIC assay, Staphylococcus aureus Oxford; conditions: against Staphylococcus aureus Oxford
Experimental: as §1

[3] = test system: Streptococcus pneumoniae 1629; experiment: conventional MIC assay, Streptococcus pneumoniae 1629; conditions: against Streptococcus pneumoniae 1629
Experimental: as §1

[4] = test system: Moraxella catarrhalis 1502; experiment: conventional MIC assay, Moraxella catarrhalis 1502; conditions: against Moraxella catarrhalis 1502
Experimental: as §1

MIC [1] | MIC [2] | MIC [3] | MIC [4] | Compound
≤ 4 µg/mL | ≤ 4 µg/mL | ≤ 4 µg/mL | ≤ 4 µg/mL | C=C[C@]1(C)C[C@@H](OC(=O)NC(=O)O[C@H]2COC[C@H]2OC(N)=O)[C@]2(C)[C@H](C)CC[C@]3(CCC(=O)[C@H]32)[C@@H](C)[C@@H]1O (racemic) [Example 118, Mutilin 14-[N-(cis-4-carbamoyloxytetrahydrofuran-3-yloxycarbonyl)]carbamate]
≤ 4 µg/mL | ≤ 4 µg/mL | ≤ 4 µg/mL | ≤ 4 µg/mL | C=C[C@]1(C)C[C@@H](OC(=O)NC(=O)OCc2ncc(C(N)=O)c(N)n2)[C@]2(C)[C@H](C)CC[C@]3(CCC(=O)[C@H]32)[C@@H](C)[C@@H]1O [Example 116, Mutilin 14-[N-(4-amino-5-carboxamidopyrimidin-2-ylmethoxycarbonyl)]carbamate]
≤ 4 µg/mL | ≤ 4 µg/mL | ≤ 4 µg/mL | ≤ 4 µg/mL | C=C[C@]1(C)C[C@@H](OC(=O)NC(=O)OCS(C)(=O)=O)[C@]2(C)[C@H](C)CC[C@]3(CCC(=O)[C@H]32)[C@@H](C)[C@@H]1O [Example 117, Mutilin 14-[N-(methylsulfonylmethoxycarbonyl)]carbamate]
≤ 4 µg/mL | ≤ 4 µg/mL | ≤ 4 µg/mL | ≤ 4 µg/mL | C=C[C@]1(C)C[C@@H](OC(=O)NC(=O)OCc2cnc(N)c(C(N)=O)n2)[C@]2(C)[C@H](C)CC[C@]3(CCC(=O)[C@H]32)[C@@H](C)[C@@H]1O [Example 119]
≤ 4 µg/mL | ≤ 4 µg/mL | ≤ 4 µg/mL | ≤ 4 µg/mL | C=C[C@]1(C)C[C@@H](OC(=O)NC(=O)OCCN2CCN(C=O)CC2)[C@]2(C)[C@H](C)CC[C@]3(CCC(=O)[C@H]32)[C@@H](C)[C@@H]1O [Example 120, Mutilin 14-[N-(2-(4-formylpiperazin-1-yl)ethyloxycarbonyl)]carbamate]
≤ 4 µg/mL | ≤ 4 µg/mL | ≤ 4 µg/mL | ≤ 4 µg/mL | C=C[C@]1(C)C[C@@H](OC(=O)NC(=O)OCCN2CCN(S(N)(=O)=O)CC2)[C@]2(C)[C@H](C)CC[C@]3(CCC(=O)[C@H]32)[C@@H](C)[C@@H]1O [Example 121]
≤ 4 µg/mL | ≤ 4 µg/mL | ≤ 4 µg/mL | ≤ 4 µg/mL | C=C[C@]1(C)C[C@@H](OC(=O)NC(=O)O[C@@H]2CO[C@H]3[C@@H]2OC[C@@H]3N)[C@]2(C)[C@H](C)CC[C@]3(CCC(=O)[C@H]32)[C@@H](C)[C@@H]1O [Example 122, Mutilin 14-[N-(((3R,3aR,6S,6aR)-6-amino-hexahydrofuro[3,2-b]furan-3-yl)oxycarbonyl)]carbamate]
≤ 4 µg/mL | ≤ 4 µg/mL | ≤ 4 µg/mL | ≤ 4 µg/mL | C=C[C@]1(C)C[C@@H](OC(=O)NC(=O)O[C@@H]2CCN(CC#N)C2)[C@]2(C)[C@H](C)CC[C@]3(CCC(=O)[C@H]32)[C@@H](C)[C@@H]1O [Example 123, Mutilin 14-[N-(1-cyanomethylpyrrolidin-3-(R)-yloxycarbonyl)]carbamate]
≤ 4 µg/mL | ≤ 4 µg/mL | ≤ 4 µg/mL | ≤ 4 µg/mL | C=C[C@]1(C)C[C@@H](OC(=O)NC(=O)O[C@H]2CN[C@H](C#N)C2)[C@]2(C)[C@H](C)CC[C@]3(CCC(=O)[C@H]32)[C@@H](C)[C@@H]1O [Example 126, Mutilin 14-[N-(5-(S)-cyanopyrrolidin-3-(R)-yloxycarbonyl)]carbamate]
≤ 4 µg/mL | ≤ 4 µg/mL | ≤ 4 µg/mL | ≤ 4 µg/mL | C=C[C@]1(C)C[C@@H](OC(=O)NC(=O)OC2CN(CC(N)=O)C2)[C@]2(C)[C@H](C)CC[C@]3(CCC(=O)[C@H]32)[C@@H](C)[C@@H]1O [Example 128, Mutilin 14-[N-(1-carbamoylmethylazetidin-3-yloxycarbonyl)]-carbamate]
≤ 4 µg/mL | ≤ 4 µg/mL | ≤ 4 µg/mL | ≤ 4 µg/mL | C=C[C@]1(C)C[C@@H](OC(=O)NC(=O)OC2CN(CC#N)C2)[C@]2(C)[C@H](C)CC[C@]3(CCC(=O)[C@H]32)[C@@H](C)[C@@H]1O [Example 129, Mutilin 14-[N-(1-cyanomethylazetidin-3-yloxycarbonyl)]-carbamate]
≤ 4 µg/mL | ≤ 4 µg/mL | ≤ 4 µg/mL | ≤ 4 µg/mL | C=C[C@]1(C)C[C@@H](OC(=O)NC(=O)OC2CN(N)C2)[C@]2(C)[C@H](C)CC[C@]3(CCC(=O)[C@H]32)[C@@H](C)[C@@H]1O [Example 130, Mutilin 14-[N-(1-aminoazetidin-3-yloxycarbonyl)]-carbamate]
